Experimental data from BindingDB's records for doi:10.1021/jm030050p (Johnson & Johnson Pharmaceutical Research & Development, 2003).
Structures can show the parent of a compound that is named as a salt.

Target: Trypsin (Bos taurus)
Test: In vitro inhibition of bovine trypsin.

Ki [nM] | SMILES
16 | CC(=O)N1C[C@H](O)C[C@H]1C(=O)NC(CCCN)C(=O)c1nc2ccccc2s1 (some centres not stated) [1-Acetyl-4-hydroxy-pyrrolidine-2-carboxylic acid [4-amino-1-(benzothiazole-2-carbonyl)-butyl]-amide; TFA]
38 | COS(=O)(=O)N1CCC[C@H]1C(=O)N[C@@H](CCCNC(=N)N)C(=O)c1nc2ccccc2s1 [2-[1-(Benzothiazole-2-carbonyl)-4-guanidino-butylcarbamoyl]-pyrrolidine-1-sulfonic acid methyl ester; TFA]
